Read-outs that look alike come from different tables or passages of the source.

What all share (assay): KINOMEscan (ScanMAX) kinase profiling
Common to all, as to type: binding

The target of test [1] is T1, panel of 468 kinases (Homo sapiens, UniProt P10721, V559D/V654A).
T1 construct: purchased KINOMEscan (ScanMAX) service
To be noted: KIT(V559D,V654A); 1 μM; read-out: % control.

Test [2] deals with T2, panel of 468 kinases (Homo sapiens, UniProt Q15418).
T2 construct: purchased KINOMEscan (ScanMAX) service
T2 sequence (Q15418 whole entry): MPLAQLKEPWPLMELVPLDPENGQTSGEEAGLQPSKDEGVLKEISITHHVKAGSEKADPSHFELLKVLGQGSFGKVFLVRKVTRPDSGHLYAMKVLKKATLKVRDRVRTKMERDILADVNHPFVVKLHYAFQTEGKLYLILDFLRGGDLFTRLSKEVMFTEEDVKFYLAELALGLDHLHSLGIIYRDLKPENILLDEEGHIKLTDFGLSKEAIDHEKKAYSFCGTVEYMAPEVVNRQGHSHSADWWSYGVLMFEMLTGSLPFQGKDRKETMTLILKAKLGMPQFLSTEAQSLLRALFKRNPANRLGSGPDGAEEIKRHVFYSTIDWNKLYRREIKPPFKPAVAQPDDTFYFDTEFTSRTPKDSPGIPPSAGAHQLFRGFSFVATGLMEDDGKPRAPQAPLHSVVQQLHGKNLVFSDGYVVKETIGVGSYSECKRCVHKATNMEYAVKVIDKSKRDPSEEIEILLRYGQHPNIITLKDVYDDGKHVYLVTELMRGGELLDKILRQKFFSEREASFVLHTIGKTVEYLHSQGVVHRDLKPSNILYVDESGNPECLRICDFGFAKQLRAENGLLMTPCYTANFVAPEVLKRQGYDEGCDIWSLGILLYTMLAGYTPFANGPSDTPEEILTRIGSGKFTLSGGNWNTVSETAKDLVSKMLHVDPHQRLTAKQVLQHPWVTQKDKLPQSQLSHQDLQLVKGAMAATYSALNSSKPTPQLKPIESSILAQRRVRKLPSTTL
To be noted: 1 μM, read-out: % control.

For test [3], the target named is T3, panel of 468 kinases (Homo sapiens, UniProt O00238).
T3 construct: purchased KINOMEscan (ScanMAX) service
To be noted: BMPR1B; 1 μM; read-out: % control.

Test [4] has as its target T4, panel of 468 kinases (Homo sapiens, UniProt P22607, G697C).
T4 construct: purchased KINOMEscan (ScanMAX) service
The settings on record: FGFR3(G697C); 1 μM; read-out: % control.

Test [5] has as its target T5, panel of 468 kinases (Homo sapiens, UniProt P06241).
T5 construct: purchased KINOMEscan (ScanMAX) service
To be noted: FYN; 1 μM; read-out: % control.

The target in test [6] is T6, panel of 468 kinases (Homo sapiens, UniProt O00506).
T6 construct: purchased KINOMEscan (ScanMAX) service
T6 sequence (O00506 whole entry): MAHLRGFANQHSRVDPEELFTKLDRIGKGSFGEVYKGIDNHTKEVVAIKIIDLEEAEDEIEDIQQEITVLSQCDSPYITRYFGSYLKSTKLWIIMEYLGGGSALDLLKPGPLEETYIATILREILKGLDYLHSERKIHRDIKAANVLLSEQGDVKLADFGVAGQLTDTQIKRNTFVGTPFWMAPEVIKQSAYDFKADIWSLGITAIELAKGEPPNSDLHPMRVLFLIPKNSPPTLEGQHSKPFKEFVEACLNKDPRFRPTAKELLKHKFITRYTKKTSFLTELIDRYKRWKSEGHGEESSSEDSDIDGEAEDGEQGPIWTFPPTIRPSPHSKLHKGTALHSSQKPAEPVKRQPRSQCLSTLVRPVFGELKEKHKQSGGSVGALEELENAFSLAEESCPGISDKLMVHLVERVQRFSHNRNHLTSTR
The settings on record: YSK1; 1 μM; read-out: % control.

Test [7] has as its target T7, panel of 468 kinases (Homo sapiens, UniProt Q59H18).
T7 construct: purchased KINOMEscan (ScanMAX) service
T7 sequence (Q59H18 1-835): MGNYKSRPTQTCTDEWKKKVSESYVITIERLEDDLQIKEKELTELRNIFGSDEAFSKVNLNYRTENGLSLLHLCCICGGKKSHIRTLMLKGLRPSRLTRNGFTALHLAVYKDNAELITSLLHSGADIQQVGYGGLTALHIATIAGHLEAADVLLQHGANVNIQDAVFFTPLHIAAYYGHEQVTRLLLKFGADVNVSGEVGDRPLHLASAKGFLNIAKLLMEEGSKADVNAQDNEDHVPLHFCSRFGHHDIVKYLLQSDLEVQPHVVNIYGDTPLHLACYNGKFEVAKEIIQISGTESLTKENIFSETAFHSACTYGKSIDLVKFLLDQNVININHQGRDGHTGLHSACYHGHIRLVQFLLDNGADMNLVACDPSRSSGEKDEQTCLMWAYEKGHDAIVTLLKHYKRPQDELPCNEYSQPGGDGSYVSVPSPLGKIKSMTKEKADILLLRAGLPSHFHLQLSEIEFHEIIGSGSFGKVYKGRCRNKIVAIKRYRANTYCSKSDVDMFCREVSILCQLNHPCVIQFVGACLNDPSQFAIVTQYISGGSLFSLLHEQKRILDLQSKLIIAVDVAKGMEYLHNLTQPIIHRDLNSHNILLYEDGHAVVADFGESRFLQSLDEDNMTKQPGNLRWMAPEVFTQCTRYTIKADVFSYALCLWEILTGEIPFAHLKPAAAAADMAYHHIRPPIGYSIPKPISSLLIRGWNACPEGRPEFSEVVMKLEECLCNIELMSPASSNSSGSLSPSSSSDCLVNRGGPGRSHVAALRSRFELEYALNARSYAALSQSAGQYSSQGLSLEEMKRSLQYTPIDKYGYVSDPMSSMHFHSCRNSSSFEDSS
The settings on record: TNNI3K; 1 μM; read-out: % control.

For test [8], the target named is T8, panel of 468 kinases (Homo sapiens, UniProt P50613).
T8 construct: purchased KINOMEscan (ScanMAX) service
T8 sequence (P50613 whole entry): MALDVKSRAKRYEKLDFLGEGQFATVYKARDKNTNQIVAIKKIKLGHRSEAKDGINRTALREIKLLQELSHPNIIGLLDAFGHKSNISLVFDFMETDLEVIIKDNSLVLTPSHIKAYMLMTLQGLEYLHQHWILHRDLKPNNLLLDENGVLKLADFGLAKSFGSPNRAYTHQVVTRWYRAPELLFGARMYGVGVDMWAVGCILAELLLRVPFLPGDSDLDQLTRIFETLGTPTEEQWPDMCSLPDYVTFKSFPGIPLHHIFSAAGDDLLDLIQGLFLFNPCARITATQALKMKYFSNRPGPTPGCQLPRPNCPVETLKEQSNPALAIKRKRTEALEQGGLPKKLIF
The settings on record: CDK7; 1 μM; read-out: % control.

The target of test [9] is T9, panel of 468 kinases (Homo sapiens, UniProt O96013).
T9 construct: purchased KINOMEscan (ScanMAX) service
T9 sequence (O96013 whole entry): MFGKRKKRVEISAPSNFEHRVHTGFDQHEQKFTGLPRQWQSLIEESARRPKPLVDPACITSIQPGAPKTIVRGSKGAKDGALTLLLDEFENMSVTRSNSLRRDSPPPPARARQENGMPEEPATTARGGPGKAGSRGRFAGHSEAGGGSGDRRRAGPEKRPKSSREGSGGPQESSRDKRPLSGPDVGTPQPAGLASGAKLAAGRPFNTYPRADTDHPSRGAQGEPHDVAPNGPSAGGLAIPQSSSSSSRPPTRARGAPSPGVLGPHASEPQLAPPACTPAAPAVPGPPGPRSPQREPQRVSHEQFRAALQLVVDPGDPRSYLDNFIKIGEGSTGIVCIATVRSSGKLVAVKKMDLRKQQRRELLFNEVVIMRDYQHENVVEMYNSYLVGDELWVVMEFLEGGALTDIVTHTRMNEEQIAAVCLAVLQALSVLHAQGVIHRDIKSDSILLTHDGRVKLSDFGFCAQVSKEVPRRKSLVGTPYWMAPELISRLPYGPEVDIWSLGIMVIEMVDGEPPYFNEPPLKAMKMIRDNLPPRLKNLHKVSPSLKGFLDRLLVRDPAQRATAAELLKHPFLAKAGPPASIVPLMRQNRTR
To be noted: PAK4; 1 μM; read-out: % control.

The target in test [10] is T10, panel of 468 kinases (Homo sapiens, UniProt P15735).
T10 construct: purchased KINOMEscan (ScanMAX) service
T10 sequence (P15735 1-406): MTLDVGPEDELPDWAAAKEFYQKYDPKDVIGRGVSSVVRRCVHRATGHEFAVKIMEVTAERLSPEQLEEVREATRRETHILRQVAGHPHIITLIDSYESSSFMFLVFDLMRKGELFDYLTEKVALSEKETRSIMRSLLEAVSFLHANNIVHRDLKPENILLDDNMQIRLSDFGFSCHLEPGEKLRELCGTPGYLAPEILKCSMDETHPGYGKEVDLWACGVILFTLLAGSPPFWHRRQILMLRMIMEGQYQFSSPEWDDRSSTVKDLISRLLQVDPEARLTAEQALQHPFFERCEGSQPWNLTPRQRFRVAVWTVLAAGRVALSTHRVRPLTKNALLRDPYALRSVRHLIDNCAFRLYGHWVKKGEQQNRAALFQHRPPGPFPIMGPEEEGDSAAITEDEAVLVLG
To be noted: PHKG2; 1 μM; read-out: % control.

Test [11] addresses T11, panel of 468 kinases (Homo sapiens, UniProt P52564).
T11 construct: purchased KINOMEscan (ScanMAX) service
T11 sequence (P52564 1-334): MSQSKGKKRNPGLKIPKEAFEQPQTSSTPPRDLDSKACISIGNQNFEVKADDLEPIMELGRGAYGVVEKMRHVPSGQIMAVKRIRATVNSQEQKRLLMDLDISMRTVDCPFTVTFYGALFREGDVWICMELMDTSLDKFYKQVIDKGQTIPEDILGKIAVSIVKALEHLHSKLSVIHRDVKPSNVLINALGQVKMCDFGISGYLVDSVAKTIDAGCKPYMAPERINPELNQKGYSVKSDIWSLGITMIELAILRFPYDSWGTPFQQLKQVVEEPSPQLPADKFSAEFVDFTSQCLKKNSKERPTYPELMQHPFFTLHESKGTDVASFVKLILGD
The settings on record: MEK6; 1 μM; read-out: % control.

In test [12] the target is T12, panel of 468 kinases (Homo sapiens, UniProt P00519, E255K).
T12 construct: purchased KINOMEscan (ScanMAX) service
T12 sequence (P00519 whole entry E255K): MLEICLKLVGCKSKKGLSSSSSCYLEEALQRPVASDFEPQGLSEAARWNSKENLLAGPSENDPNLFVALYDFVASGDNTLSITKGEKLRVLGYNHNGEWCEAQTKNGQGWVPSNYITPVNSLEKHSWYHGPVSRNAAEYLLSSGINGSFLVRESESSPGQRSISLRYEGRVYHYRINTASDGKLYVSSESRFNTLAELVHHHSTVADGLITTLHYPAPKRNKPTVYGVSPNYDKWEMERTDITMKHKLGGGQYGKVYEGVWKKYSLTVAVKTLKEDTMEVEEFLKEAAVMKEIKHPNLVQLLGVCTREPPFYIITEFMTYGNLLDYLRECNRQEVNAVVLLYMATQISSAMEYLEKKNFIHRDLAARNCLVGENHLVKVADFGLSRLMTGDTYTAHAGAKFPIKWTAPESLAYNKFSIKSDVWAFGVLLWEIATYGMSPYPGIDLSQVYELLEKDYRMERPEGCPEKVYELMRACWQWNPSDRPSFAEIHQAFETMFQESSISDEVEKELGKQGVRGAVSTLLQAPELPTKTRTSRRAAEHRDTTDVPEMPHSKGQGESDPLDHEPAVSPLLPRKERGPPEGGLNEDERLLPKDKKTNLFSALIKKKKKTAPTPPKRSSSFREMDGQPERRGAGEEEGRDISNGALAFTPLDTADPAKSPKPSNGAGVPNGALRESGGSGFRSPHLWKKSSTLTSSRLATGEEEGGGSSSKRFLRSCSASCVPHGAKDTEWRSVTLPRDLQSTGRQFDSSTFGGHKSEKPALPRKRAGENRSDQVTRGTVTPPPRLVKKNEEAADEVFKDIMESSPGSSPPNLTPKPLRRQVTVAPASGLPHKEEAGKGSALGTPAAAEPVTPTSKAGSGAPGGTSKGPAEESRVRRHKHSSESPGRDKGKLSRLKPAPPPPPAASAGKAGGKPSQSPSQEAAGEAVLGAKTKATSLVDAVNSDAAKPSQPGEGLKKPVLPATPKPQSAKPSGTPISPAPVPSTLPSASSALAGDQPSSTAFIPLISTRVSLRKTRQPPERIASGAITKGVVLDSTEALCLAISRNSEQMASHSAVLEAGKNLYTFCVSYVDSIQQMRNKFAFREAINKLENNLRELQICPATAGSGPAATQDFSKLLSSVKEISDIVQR
To be noted: ABL1(E255K)-phosphorylated; 1 μM; read-out: % control.

Test [13] deals with T13, panel of 468 kinases (Homo sapiens, UniProt Q9Y6M4).
T13 construct: purchased KINOMEscan (ScanMAX) service
The settings on record: CSNK1G3; 1 μM; read-out: % control.

T1 sequence (P10721 26-976 V559D/V654A): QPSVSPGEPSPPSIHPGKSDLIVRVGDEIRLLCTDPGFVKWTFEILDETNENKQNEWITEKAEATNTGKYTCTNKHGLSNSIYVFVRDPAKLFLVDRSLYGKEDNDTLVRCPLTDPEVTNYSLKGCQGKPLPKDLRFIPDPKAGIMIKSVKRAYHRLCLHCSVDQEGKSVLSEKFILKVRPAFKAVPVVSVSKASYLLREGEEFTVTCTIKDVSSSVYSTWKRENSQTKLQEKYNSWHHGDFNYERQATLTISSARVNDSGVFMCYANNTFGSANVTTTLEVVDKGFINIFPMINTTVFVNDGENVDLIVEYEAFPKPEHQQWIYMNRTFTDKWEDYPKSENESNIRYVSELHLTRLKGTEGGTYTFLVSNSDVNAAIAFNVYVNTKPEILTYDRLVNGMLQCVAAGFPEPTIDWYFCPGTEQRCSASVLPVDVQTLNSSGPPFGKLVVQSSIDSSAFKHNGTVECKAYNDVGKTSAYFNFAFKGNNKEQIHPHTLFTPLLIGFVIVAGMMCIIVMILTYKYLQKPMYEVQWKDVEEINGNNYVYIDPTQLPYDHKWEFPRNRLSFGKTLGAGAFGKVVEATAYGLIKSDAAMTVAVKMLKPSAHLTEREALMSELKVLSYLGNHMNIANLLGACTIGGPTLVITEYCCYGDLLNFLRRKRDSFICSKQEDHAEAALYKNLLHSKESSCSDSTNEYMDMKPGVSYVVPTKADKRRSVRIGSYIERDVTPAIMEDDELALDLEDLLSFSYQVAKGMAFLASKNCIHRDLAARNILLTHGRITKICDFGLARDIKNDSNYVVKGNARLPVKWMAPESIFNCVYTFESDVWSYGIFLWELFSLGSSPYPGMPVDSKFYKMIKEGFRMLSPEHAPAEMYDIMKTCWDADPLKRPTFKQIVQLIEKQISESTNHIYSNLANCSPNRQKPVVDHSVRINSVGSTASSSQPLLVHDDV
T4 sequence (P22607 23-806 G697C): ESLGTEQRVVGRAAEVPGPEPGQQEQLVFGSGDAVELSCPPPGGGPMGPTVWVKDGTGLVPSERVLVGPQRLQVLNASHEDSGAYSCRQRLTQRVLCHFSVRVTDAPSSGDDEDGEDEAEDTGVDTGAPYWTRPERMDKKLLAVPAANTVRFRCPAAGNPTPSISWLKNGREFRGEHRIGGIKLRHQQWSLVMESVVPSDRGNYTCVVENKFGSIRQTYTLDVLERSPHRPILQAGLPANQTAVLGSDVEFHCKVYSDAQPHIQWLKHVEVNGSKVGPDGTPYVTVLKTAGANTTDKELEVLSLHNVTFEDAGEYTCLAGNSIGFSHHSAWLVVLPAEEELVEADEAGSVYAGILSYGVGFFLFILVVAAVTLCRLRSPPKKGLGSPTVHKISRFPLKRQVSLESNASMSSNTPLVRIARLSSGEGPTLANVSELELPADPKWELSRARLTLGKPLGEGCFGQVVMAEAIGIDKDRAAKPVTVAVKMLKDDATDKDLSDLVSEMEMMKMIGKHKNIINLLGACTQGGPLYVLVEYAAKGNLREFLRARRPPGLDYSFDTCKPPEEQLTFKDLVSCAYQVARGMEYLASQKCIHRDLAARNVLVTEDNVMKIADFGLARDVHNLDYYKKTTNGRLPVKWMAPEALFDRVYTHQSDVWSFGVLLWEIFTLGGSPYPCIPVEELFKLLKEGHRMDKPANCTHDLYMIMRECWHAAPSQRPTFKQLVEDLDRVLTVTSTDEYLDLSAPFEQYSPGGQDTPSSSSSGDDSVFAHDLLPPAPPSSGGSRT

Consider `CNc1nc(Nc2ccc(C(=O)N3CCC(N4CCOCC4)CC3)c3c2OCO3)nc2[nH]cc(Cl)c12` [Compound 75, (7-((5-chloro-4-(methylamino)-7H-pyrrolo[2,3-d]pyrimidin-2-yl)amino)benzo[d][1,3]dioxol-4-yl)(4-morpholinopiperidin-1-yl)methanone], for which the remaining binding at 1 µM in [1] stood at 94%; in test [2] (RSK1(Kin.Dom.1-N-terminal)), 100%; in test [2] (RSK1(Kin.Dom.2-C-terminal)), 99%; in test [3] it was 67%; in test [4], 100%; in test [5] it was 100%. For the same compound, the remaining binding at 1 µM in [6] came to 100%; in [7], 100%; in [8], 21%; in test [9] it was 100%; in [10], 5.3%; in [11] it was 10%. For the same compound, the remaining binding at 1 µM in [12] came to 100%; in test [13], 18%.

For the compound `CNc1nc(Nc2ccc(P3(=O)CCN(C4CCOCC4)CC3)cc2OC)nc2[nH]cc(Cl)c12` [Compound 77, 4-(4-((5-chloro-4-(methylamino)-7H-pyrrolo[2,3-d]pyrimidin-2-yl)amino)-3-methoxyphenyl)-1-(tetrahydro-2H-pyran-4-yl)-1,4-azaphosphinane 4-oxide], the remaining binding at 1 µM in [1] stood at 96%; in test [2] (RSK1(Kin.Dom.1-N-terminal)) it was 100%; in test [2] (RSK1(Kin.Dom.2-C-terminal)) it was 64%; in [3], 80%; in test [4] it was 100%; in test [5], 95%. The remaining binding at 1 µM in test [6] was determined as 100%; in test [7] it was 100%; in [8] it was 86%; in [9], 100%; in test [10], 1.9%; in test [11] it was 56%. Moreover, the remaining binding at 1 µM amounted to 100% in test [12] and 89% in [13].

As to `CNc1nc(Nc2ccc(S(=O)(=O)N3CCC(N4CCOCC4)CC3)cc2OC)nc2[nH]cc(Cl)c12` [Compound 12, 5-chloro-N2-(2-methoxy-4-((4-morpholinopiperidin-1-yl)sulfonyl)phenyl)-N4-methyl-7H-pyrrolo[2,3-d]pyrimidine-2,4-diamine], the remaining binding at 1 µM came out at 100% in test [1]; 100% in test [2] (RSK1(Kin.Dom.1-N-terminal)); 100% in [2] (RSK1(Kin.Dom.2-C-terminal)); 76% in test [3]; 100% in [4]; 100% in test [5]. Besides, the remaining binding at 1 µM was 100% in test [6]; 100% in test [7]; 98% in test [8]; 100% in [9]; 11% in test [10]; 96% in test [11]. Further, the remaining binding at 1 µM in test [12] stood at 92%; in test [13], 96%.

For the origin of these results see patent US12479847B2 (DANA-FARBER CANCER INSTITUTE, INC., priority 2019, dated 2025).
